Like-named read-outs stand apart in the source and are kept apart here.
Tests used:
[1] = Cytotoxicity, ATPlite cell viability; format: cell-based; details: human, mean value, HepG2 or HepG2.117 cells
Experimental: Cytotoxicity of the compounds was tested using HepG2 or HepG2.117 cells, incubated for 4 days in the presence of compounds. The viability of the cells was assessed using the Perkin Elmer ATPlite Luminescence Assay System.”

HBV = test: anti HBV activity, HepG2.117 cell line, intracellular HBV DNA by real-time PCR; format: cell-based, hepatitis B virus; details: for EC50: Hepatitis B virus, read-out: HBV-AVE-HepG2.117_intra_EC50; for improved anti-HBV activity, fold improvement over Ref. compound 59: from table 4 EC50 values
Experimental: The anti HBV activity was measured using the HepG2.117 cell line, a stable, inducible HBV producing cell line, which replicates HBV in the absence of doxicycline (Tet-off system). The HepG2 cell line is available from ATCC® under number HB-8065. Transfection of the HepG2 cell line can be as described in Sun and Nassal 2006 Journal of Hepatology 45 (2006) 636-645 “Stable HepG2-and Huh7-based human hepatoma cell lines for efficient regulated expression of infectious hepatitis B virus”.
For the antiviral assay, HBV replication was induced, followed by a treatment with serially diluted compound in 96-well plates. After 3 days of treatment, the antiviral activity was determined by quantification of intracellular HBV DNA using real-time PCR and an HBV specific primer set and probe.

[2] = 72 h, mean value, HepG2.117 cells, 3 days of treatment, intracellular HBV DNA

Structure (SMILES) | CC50 at 4 days [1] [nM] | EC50 (HBV; [2]) [nM] | EC50 (HBV; HepG2.117, 72 h) [nM] | improved anti-HBV activity, fold improvement over Ref. compound 59 (HBV) [fold]
Cn1cc(C(=O)C(=O)N[C@]2(c3cn[nH]n3)CCC(F)(F)C2)cc1C(=O)Nc1ccc(F)c(C#N)c1 (single isomer, unassigned) [18*R] | 14100 | 15 |  | 
Cn1cc(C(=O)C(=O)N[C@@]2(c3cn[nH]n3)CCC(F)(F)C2)cc1C(=O)Nc1ccc(F)c(C#N)c1 (single isomer, unassigned) [18*S] | 20700 | 64 |  | 
Cn1cc(C(=O)C(=O)N[C@H](CC(F)F)c2cn[nH]n2)cc1C(=O)Nc1ccc(F)c(C#N)c1 (single isomer, unassigned) [24*R] | 9400 | 46 |  | 
Cn1cc(C(=O)C(=O)N[C@@H](CC(F)F)c2cn[nH]n2)cc1C(=O)Nc1ccc(F)c(C#N)c1 (single isomer, unassigned) [24*S] | 28200 | 562 |  | 
Cc1c(C(=O)C(=O)N[C@]2(c3cn[nH]n3)CCC(F)(F)C2)cn(C)c1C(=O)Nc1ccc(F)c(Cl)c1 (single isomer, unassigned) [25*R] | 18600 | 3 |  | 
Cc1c(C(=O)C(=O)N[C@@]2(c3cn[nH]n3)CCC(F)(F)C2)cn(C)c1C(=O)Nc1ccc(F)c(Cl)c1 (single isomer, unassigned) [25*S] | 24200 | 4 |  | 
Cc1c(C(=O)C(=O)N[C@H](CC(F)(F)F)c2cn[nH]n2)cn(C)c1C(=O)Nc1ccc(F)c(Cl)c1 (single isomer, unassigned) [26*R] | > 50000 | 7 |  | 
Cc1c(C(=O)C(=O)N[C@@H](CC(F)(F)F)c2cn[nH]n2)cn(C)c1C(=O)Nc1ccc(F)c(Cl)c1 (single isomer, unassigned) [26*S] | > 50000 | 18 |  | 
Cn1cc(C(=O)C(=O)N[C@@]2(c3cn[nH]n3)C[C@@H]2C(F)F)cc1C(=O)Nc1ccc(F)c(C#N)c1 (single isomer, unassigned) [27*R*R] | 24300 | 273 |  | 
Cn1cc(C(=O)C(=O)N[C@]2(c3cn[nH]n3)C[C@H]2C(F)F)cc1C(=O)Nc1ccc(F)c(C#N)c1 (single isomer, unassigned) [27*S*S] | > 50000 | 92 |  | 
Cc1c(C(=O)C(=O)N[C@H](CC(F)(F)F)c2cn[nH]n2)c(C)n(C)c1C(=O)Nc1ccc(F)c(C#N)c1 (single isomer, unassigned) [44*R] | > 50000 | 5 |  | 
Cc1c(C(=O)C(=O)N[C@@H](CC(F)(F)F)c2cn[nH]n2)c(C)n(C)c1C(=O)Nc1ccc(F)c(C#N)c1 (single isomer, unassigned) [44*S] | > 50000 | < 12 |  | 
Cc1c(C(=O)C(=O)N[C@H](CC(F)(F)F)c2cn[nH]n2)cn(C)c1C(=O)Nc1ccc(F)c(C#N)c1 (single isomer, unassigned) [47*R] | > 50000 | 21 |  | 
Cc1c(C(=O)C(=O)N[C@@H](CC(F)(F)F)c2cn[nH]n2)cn(C)c1C(=O)Nc1ccc(F)c(C#N)c1 (single isomer, unassigned) [47*S] | > 50000 | 11 |  | 
Cc1c(C(=O)C(=O)N[C@](C)(c2cn[nH]n2)C(F)F)cn(C)c1C(=O)Nc1ccc(F)c(C#N)c1 (single isomer, unassigned) [48*R] | > 50000 | 12 |  | 
Cc1c(C(=O)C(=O)N[C@@](C)(c2cn[nH]n2)C(F)F)cn(C)c1C(=O)Nc1ccc(F)c(C#N)c1 (single isomer, unassigned) [48*S] | > 50000 | 4 |  | 
Cc1c(C(=O)C(=O)N[C@H](CC(C)(F)F)c2cn[nH]n2)cn(C)c1C(=O)Nc1ccc(F)c(C#N)c1 (single isomer, unassigned) [49*R] | > 50000 | 16 |  | 
Cc1c(C(=O)C(=O)N[C@@H](CC(C)(F)F)c2cn[nH]n2)cn(C)c1C(=O)Nc1ccc(F)c(C#N)c1 (single isomer, unassigned) [49*S] | > 50000 | 27 |  | 

Structure (SMILES) | CC50 at 4 days [1] [nM] | EC50 (HBV; [2]) [nM] | EC50 (HBV; HepG2.117, 72 h) [nM] | improved anti-HBV activity, fold improvement over Ref. compound 59 (HBV) [fold]
Cn1cc(C(=O)C(=O)N[C@H](c2cnn[nH]2)C(C)(C)C)cc1C(=O)Nc1ccc(F)c(C#N)c1 (stereo in doubt) [Compound 11] | 26000 | 100 |  | 
Cc1cc(NC(=O)c2cc(C(=O)C(=O)NC(C)c3cn[nH]n3)cn2C)ccc1F (stereo not drawn) [Compound 1, N-(4-Fluoro-3-methylphenyl)-1-methyl-4-(oxo{[1-(2H-1,2,3-triazol-4-yl)ethyl]amino}acetyl)-1H-pyrrole-2-carboxamide] | > 50000 |  | 51 | ~10
Cc1cc(NC(=O)c2cc(C(=O)C(=O)NC3(c4cn[nH]n4)CC(F)(F)C3)cn2C)ccc1F [Compound 2, 4-[{[3,3-Difluoro-1-(2H-1,2,3-triazol-4-yl)cyclobutyl]amino}(oxo)acetyl]-N-(4-fluoro-3-methylphenyl)-1-methyl-1H-pyrrole-2-carboxamide] | 23800 |  | 32 | ~18
Cn1cc(C(=O)C(=O)NC2(c3cn[nH]n3)CC(F)(F)C2)c(Cl)c1C(=O)Nc1ccc(F)c(Cl)c1 [Compound 3] | 22000 | 6 |  | 
Cn1cc(C(=O)C(=O)NC2(c3cn[nH]n3)CC(F)(F)C2)cc1C(=O)Nc1ccc(F)c(C#N)c1 [Compound 4] | 8200 | 63 |  | 
Cn1cc(C(=O)C(=O)NC2(c3cn[nH]n3)CC(F)(F)C2)c(F)c1C(=O)Nc1ccc(F)c(C#N)c1 [Compound 5] | 11900 | 10 |  | 
Cn1cc(C(=O)C(=O)NC2(c3cn[nH]n3)CC(F)(F)C2)cc1C(=O)Nc1ccc(F)c(Cl)c1 [Compound 6] | 7100 | 17 |  | 
Cn1cc(C(=O)C(=O)NC2(c3cn[nH]n3)CC(F)(F)C2)c(F)c1C(=O)Nc1ccc(F)c(Cl)c1 [Compound 7] | 13500 | 11 |  | 
Cn1cc(C(=O)C(=O)NC2(c3cn[nH]n3)CC(F)(F)C2)c(Cl)c1C(=O)Nc1ccc(F)c(C#N)c1 [Compound 8] | > 50000 | 6 |  | 
Cc1cc(NC(=O)c2cc(C(=O)C(=O)NC(C)(C)c3cn[nH]n3)cn2C)ccc1F [Compound 9] | > 50000 | 19 |  | 
Cn1cc(C(=O)C(=O)NC2(c3c[nH]nn3)CC2)cc1C(=O)Nc1ccc(F)c(C#N)c1 [Compound 10] | > 50000 | 150 |  | 
Cn1cc(C(=O)C(=O)NC2(c3cnnn3C)CC(F)(F)C2)c(Cl)c1C(=O)Nc1ccc(F)c(Cl)c1 [Compound 14] | > 50000 | 4 |  | 
Cn1cc(C2(NC(=O)C(=O)c3cn(C)c(C(=O)Nc4ccc(F)c(Cl)c4)c3Cl)CC(F)(F)C2)nn1 [Compound 15] | > 50000 | 4 |  | 
Cn1ncc(C2(NC(=O)C(=O)c3cn(C)c(C(=O)Nc4ccc(F)c(Cl)c4)c3Cl)CC(F)(F)C2)n1 [Compound 16] | > 50000 | 3 |  | 
Cn1cc(C(=O)C(=O)NC2(c3cn[nH]n3)COC2)cc1C(=O)Nc1ccc(F)c(C#N)c1 [Compound 17] | > 50000 | 171 |  | 
Cn1cc(C(=O)C(=O)NC(CC(F)(F)F)c2cn[nH]n2)cc1C(=O)Nc1ccc(F)c(C#N)c1 (stereo not drawn) [Compound 20RS] | 12000 | 61 |  | 
Cn1cc(C(=O)C(=O)NC2(c3cn[nH]n3)CS(=O)(=O)C2)cc1C(=O)Nc1ccc(F)c(C#N)c1 [Compound 21] | > 50000 | 1270 |  | 
